According to ChEMBL document CHEMBL5532637, “Antimicrobial activity of natural and semi-synthetic carbazole alkaloids” (Eur J Med Chem, 2023):
In brackets after ≈: the same amount, converted by molar mass.

What was measured:
Nakaseomyces glabratus [1] = experiment: Antifungal activity against Candida glabrata ATCC 90030 assessed as inhibition of fungal growth incubated for 24 hrs by microtiter plate reader assay; assay type: functional
Bacillus subtilis [2] = experiment: Antimicrobial activity against Bacillus subtilis assessed as zone of inhibition incubated for 24 hrs by disc diffusion method; assay type: functional
Staphylococcus aureus [3] = experiment: Antimicrobial activity against Staphylococcus aureus assessed as zone of inhibition incubated for 24 hrs by disc diffusion method; assay type: functional
Aspergillus niger = experiment: Antimicrobial activity against Aspergillus niger assessed as zone of inhibition incubated for 48 hrs by disc diffusion method; assay type: functional
Escherichia coli [4] = experiment: Antimicrobial activity against Escherichia coli assessed as zone of inhibition incubated for 24 hrs by disc diffusion method; assay type: functional
Candida albicans [5] = experiment: Antimicrobial activity against Candida albicans assessed as zone of inhibition incubated for 48 hrs by disc diffusion method; assay type: functional
Shigella flexneri = experiment: Antimicrobial activity against Shigella flexneri assessed as zone of inhibition incubated for 24 hrs by disc diffusion method; assay type: functional
Nakaseomyces glabratus [6] = experiment: Antifungal activity against Candida glabrata assessed as inhibition of fungal growth incubated for 24 hrs by microplate reader assay; assay type: functional
Candida parapsilosis [7] = experiment: Antifungal activity against Candida parapsilosis assessed as inhibition of fungal growth incubated for 24 hrs by microplate reader assay; assay type: functional; settings: Lodderomyces parapsilosis
Candida albicans [8] = experiment: Antifungal activity against Candida albicans assessed as inhibition of fungal growth incubated for 24 hrs by microplate reader assay; assay type: functional
Pasteurella multocida = experiment: Antibacterial activity against Pasteurella multocida assessed as inhibition of bacterial growth by agar well diffusion method; assay type: functional
Bacillus subtilis [9] = experiment: Antibacterial activity against Bacillus subtilis assessed as inhibition of bacterial growth by agar well diffusion method; assay type: functional
Staphylococcus aureus [10] = experiment: Antibacterial activity against Staphylococcus aureus NRRL B-767 assessed as inhibition of bacterial growth incubated for 18 to 24 hrs by microbroth dilution method; assay type: functional; settings: time 18-24 hrs
Bacillus subtilis [11] = experiment: Antibacterial activity against Bacillus subtilis NRS-744 assessed as inhibition of bacterial growth incubated for 18 to 24 hrs by microbroth dilution method; assay type: functional; settings: time 18-24 hrs
HeLa = experiment: Cytotoxicity against human HeLa cells incubated for 48 hrs by sulforhodamine B assay; assay type: functional
A549 = experiment: Cytotoxicity against human A549 cells incubated for 48 hrs by sulforhodamine B assay; assay type: functional
Staphylococcus aureus [12] = experiment: Antimicrobial activity against methicillin-resistant Staphylococcus aureus assessed as inhibition of microbial growth incubated for 18 to 24 hrs by agar broth microplate assay; assay type: functional; settings: time 18-24 hrs, read-out: MIC100
Salmonella typhimurium = experiment: Antimicrobial activity against Salmonella typhimurium assessed as inhibition of microbial growth incubated for 18 to 24 hrs by agar broth microplate assay; assay type: functional, Salmonella enterica subsp. enterica serovar Typhimurium; settings: Salmonella enterica; time 18-24 hrs; read-out: MIC100
Candida albicans [13] = experiment: Antimicrobial activity against Candida albicans assessed as inhibition of microbial growth incubated for 18 to 24 hrs by agar broth microplate assay; assay type: functional; settings: time 18-24 hrs, read-out: MIC100
Pichia kudriavzevii [14] = experiment: Antifungal activity against Candida krusei ATCC 6258 assessed as inhibition of fungal growth incubated for 24 hrs by microtiter plate reader assay; assay type: functional
Saccharomyces cerevisiae = experiment: Antifungal activity against Saccharomyces cerevisiae ATCC 9763 assessed as inhibition of fungal growth incubated for 24 hrs by microtiter plate reader assay; assay type: functional
Escherichia coli [15] = experiment: Antibacterial activity against Escherichia coli assessed as inhibition of bacterial growth by broth microdilution method; assay type: functional
Klebsiella pneumoniae = experiment: Antibacterial activity against Klebsiella pneumoniae assessed as inhibition of bacterial growth by broth microdilution method; assay type: functional
Nakaseomyces glabratus [16] = experiment: Antifungal activity against Candida glabrata MTCC 3814 assessed as inhibition of fungal growth by broth microdilution method; assay type: functional
Pseudomonas aeruginosa = experiment: Antibacterial activity against Pseudomonas aeruginosa assessed as inhibition of bacterial growth by broth microdilution method; assay type: functional
Candida albicans [17] = experiment: Antifungal activity against Candida albicans clinical isolate Gu5 assessed as inhibition of fungal growth by broth microdilution method; assay type: functional
Candida albicans [18] = experiment: Antifungal activity against Candida albicans clinical isolate DSY294 assessed as inhibition of fungal growth by broth microdilution method; assay type: functional
Candida albicans [19] = experiment: Antifungal activity against Candida albicans SC5314 assessed as inhibition of fungal growth by broth microdilution method; assay type: functional
Candida parapsilosis [20] = experiment: Antifungal activity against Candida parapsilosis MTCC 7043 assessed as inhibition of fungal growth by broth microdilution method; assay type: functional; settings: Lodderomyces parapsilosis
Candida tropicalis = experiment: Antifungal activity against Candida tropicalis MTCC 9038 assessed as inhibition of fungal growth by broth microdilution method; assay type: functional
Candida albicans [21] = experiment: Antifungal activity against Candida albicans clinical isolate Gu4 assessed as inhibition of fungal growth by broth microdilution method; assay type: functional
Pichia kudriavzevii [22] = experiment: Antifungal activity against Candida krusei MTCC 9215 assessed as inhibition of fungal growth by broth microdilution method; assay type: functional
Staphylococcus aureus [23] = experiment: Antibacterial activity against Staphylococcus aureus assessed as inhibition of bacterial growth by broth microdilution method; assay type: functional
Candida albicans [24] = experiment: Antifungal activity against Candida albicans clinical isolate DSY296 assessed as inhibition of fungal growth by broth microdilution method; assay type: functional
Candida albicans [25] = experiment: Antifungal activity against Candida albicans MTCC 3017 assessed as inhibition of fungal growth by broth microdilution method; assay type: functional
Staphylococcus aureus [26] = experiment: Antibacterial activity against Staphylococcus aureus assessed as zone of inhibition by filter paper disk-agar diffusion method; assay type: functional
[27] = test system: Mycobacterium tuberculosis; experiment: Antibacterial activity against Mycobacterium tuberculosis assessed as inhibition of bacterial growth; assay type: functional
Bacillus cereus = experiment: Antibacterial activity against Bacillus cereus assessed as inhibition of bacterial growth; assay type: functional, organism-based

With `FC(F)(F)Oc1ccc2c3c([nH]c2c1)C(NCCOc1ccc(Cl)cc1)CCC3` (stereo not drawn) the MIC50 (Nakaseomyces glabratus [1]) was 5.3 µM (≈ 2.25 µg/mL).

`Cn1c2ccccc2c2cc(-c3cc(-c4ccccn4)nc(N)n3)ccc21` was tested, and the “inhibition zone (IZ)” value (Bacillus subtilis [2]) was 18 mm, the “inhibition zone (IZ)” value (Staphylococcus aureus [3]) was 18 mm and the “inhibition zone (IZ)” value (Aspergillus niger) was 12 mm. The “inhibition zone (IZ)” value (Escherichia coli [4]) was 10 mm, the “inhibition zone (IZ)” value (Candida albicans [5]) was 15 mm and the “inhibition zone (IZ)” value (Shigella flexneri) was 18 mm.

Molecule `COc1ccc(CNCCCn2c3ccccc3c3ccccc32)cc1` has an MIC80 (Nakaseomyces glabratus [6]) of 4 µg/mL (≈ 11.6 µM), an MIC80 (Candida parapsilosis [7]) of 8 µg/mL (≈ 23.2 µM) and an MIC80 (Candida albicans [8]) of 16 µg/mL (≈ 46.4 µM).

`C/C(=N/Nc1ccccc1)C1CCCc2c1n(C)c1c([N+](=O)[O-])cc([N+](=O)[O-])cc21` (stereo not drawn) was tested, and the MIC (Pasteurella multocida) was 1.8 µg/mL (≈ 4.42 µM) and the MIC (Bacillus subtilis [9]) was 1.8 µg/mL (≈ 4.42 µM).

With `CCn1c2ccccc2c2cc(NC(=O)COc3cccc4cccnc34)ccc21` the MIC (Staphylococcus aureus [10]) was 31.2 µg/mL (≈ 79 µM) and the MIC (Bacillus subtilis [11]) was 31.2 µg/mL (≈ 79 µM).

`CC(C)=CCc1ccc2c([nH]c3cc(O)c(C=O)cc32)c1O` gave an IC (HeLa) of 1.91 µg/mL and an IC (A549) of 5.25 µg/mL.

`O=c1[nH]n(-c2ccccc2)c(=O)c2cc3c(cc12)[nH]c1ccc([N+](=O)[O-])cc13` showed an MIC (Staphylococcus aureus [12]) of 12 µg/mL, an MIC (Salmonella typhimurium) greater than 512 µg/mL and an MIC (Candida albicans [13]) of 32 µg/mL.

Molecule `FC(F)(F)Oc1ccc2c3c([nH]c2c1)C(NCc1ccc(Br)cc1)CCC3` (stereo not drawn) has an MIC50 (Pichia kudriavzevii [14]) of 4.7 µM (≈ 2.06 µg/mL) and an MIC50 (Saccharomyces cerevisiae) of 1.5 µM (≈ 0.659 µg/mL).

Molecule `COc1cc2c(cc1O)[nH]c1c3c(c(C)cc12)OC(C)(C)C=C3` has an MIC90 (Escherichia coli [15]) greater than 100 µg/mL, an MIC90 (Klebsiella pneumoniae) of 3.12 µg/mL (≈ 10.1 µM) and an MIC90 (Nakaseomyces glabratus [16]) of 12.5 µg/mL (≈ 40.4 µM). It also gave an MIC90 (Pseudomonas aeruginosa) greater than 100 µg/mL, an MIC90 (Candida albicans [17]) of 12.5 µg/mL (≈ 40.4 µM) and an MIC90 (Candida albicans [18]) of 12.5 µg/mL (≈ 40.4 µM). It also gave an MIC90 (Candida albicans [19]) of 12.5 µg/mL (≈ 40.4 µM), an MIC90 (Candida parapsilosis [20]) of 12.5 µg/mL (≈ 40.4 µM) and an MIC90 (Candida tropicalis) of 12.5 µg/mL (≈ 40.4 µM). For the same molecule, the MIC90 (Candida albicans [21]) was 12.5 µg/mL (≈ 40.4 µM), the MIC90 (Pichia kudriavzevii [22]) was 12.5 µg/mL (≈ 40.4 µM) and the MIC90 (Staphylococcus aureus [23]) was 3.12 µg/mL (≈ 10.1 µM). It also gave an MIC90 (Candida albicans [24]) of 12.5 µg/mL (≈ 40.4 µM) and an MIC90 (Candida albicans [25]) of 12.5 µg/mL (≈ 40.4 µM).

With `COc1cc2c(cc1O)[nH]c1cc(O)c(C=O)cc12` [CLAULANSINE J] the “inhibition zone (IZ)” value (Staphylococcus aureus [26]) was 14.2 mm.

For `Cc1cc2c([nH]c3ccc4c(c32)C=CC(C)(C)O4)c(-c2c(O)c(C)cc3c2[nH]c2ccc4c(c23)C=CC(C)(C)O4)c1O` [CLAUSENAWALLINE A], the MIC [27] was 12.5 µg/mL (≈ 22.5 µM).

For `Cc1cc2c([nH]c3ccccc32)c2c1OC(C)(C)C=C2` [GRINIMIBINE], the IC50 (Bacillus cereus) was 3.4 µM.
